Test results published in article doi:10.1101/2021.09.27.461913v1, “Interactions of cytosolic termini of the Jen1 monocarboxylate transporter are critical for trafficking, transport activity and endocytosis” (biorxiv, 2021).

Tests used:
Assay in all cases: radiolabelled [3H]-xanthine uptake in intact  cells
Format in all cases: cell-based, Aspergillus nidulans
Conditions in all cases: labelled compound
UapA/Jen1NT94-CT33 = test system: T1, UapA/Jen1NT94-CT33
T1 construct: Jen1 1-94 / intact UapA / Jen1 584-616, GFP-tagged, GAL promoter, in S. cerevisiae; one polypeptide; with Carboxylic acid transporter protein homolog; Carboxylic acid transporter protein homolog

UapA/Jen1NT94 = test system: T2, UapA/Jen1NT94
T2 construct: Jen1 residues 1-94 fused N-terminally to intact UapA, GFP-tagged, GAL promoter, in S. cerevisiae; one polypeptide; with Carboxylic acid transporter protein homolog

UapA/Jen1CT33 = test system: T3, UapA/Jen1CT33
T3 construct: Jen1 residues 584-616 fused C-terminally to intact UapA, GFP-tagged, GAL promoter, in S. cerevisiae; one polypeptide; with Carboxylic acid transporter protein homolog

SMILES: O=c1[nH]c(=O)c2[nH]cnc2[nH]1 [xanthine]
- Km (UapA/Jen1NT94-CT33): 101 ± 10 µM
- Km (UapA/Jen1NT94): 5 ± 2 µM
- Km (UapA/Jen1CT33): 10 ± 3 µM
